The test system of one experiment is HCC2935. Nature of the experiment: Combinatorial activity in LUAD cell line HCC2935. The note with it: Homo sapiens; HCC2935, WT; single agent; read-out: (nM) s.a. The class given is cell-based. As for the experimental part: (§1) Combinatorial activity of PF-07104091 and PF-07220060 was assessed in LUADs as single agents (s.a.) or in combination.
The next experiment has as its system T47D breast cancer model. Put plainly: In vivo efficacy, HR+/HER2− T47D breast cancer model (Example 3). Further details: species or system NSG mice. Conditions: Day 41, PO BID: PF-07104091 150 mpk, PF-07220060 60 mpk, palbociclib 10 mpk. As for the experimental part: (§2) Female NSG mice (Jackson Lab) were subcutaneously implanted with fragment (27 mm^3 to 64 mm^3 size) into the dorsal region. All mice for T47D, HCC1428 and ST941 PBR studies were supplemented with 8.5 μg/mL estradiol water (β-Estradiol Sigma-Aldrich, cat #E2758-5G) and gave ad libitum till end of study. For the in vivo efficacy studies, tumor volume and body weights were measured twice a week. Tumor volume was calculated using the [(Length×Width×Width)/2)] formula. TGI was calculated as 100*(1−ΔT/ΔC). The ΔC (ΔT) was obtained by subtracting the mean tumor burden in the vehicle (treated) group on the first day of treatment (Day 0) from the mean tumor burden in vehicle (treated) group on the assessment day. Statistical analysis was performed using ANCOVA when the mean tumor volume in vehicle treated mice reached tumor cutoff size.
(§3) The T47D model was established by implanting passage 3 tumor fragments into recipient mice. To establish the T47D donor mice, tumor cells (5×10^6 cell/mouse with 50% Cultrex® Basement Membrane Matrix) were subcutaneously implanted in female NSG mice. Once reaching a range of 700 to 800 mm^3, donor tumors were subsequently transplanted into secondary recipient mice for a study expansion. […] PF-07104091 (lot 016), PF-07220060 (lot 019) and PD-0332991 (lot GR08498) were administered (PO.) BID (7 hr apart). All mice received treatment continuously until Day 41. TGI was assessed on Day 41 post first dose.

Another experiment concerns CALU6. Put plainly: Combinatorial activity in LUAD cell line CALU6. The class given is cell-based. The note with it: Homo sapiens, Calu-6; CALU6, WT; single agent; read-out: (nM) s.a. As for the experimental part:
as §1

The next experiment relates to MCF7 breast cancer model. Nature of the experiment: In vivo efficacy, HR+/HER2− MCF7 breast cancer model (Example 4). Also noted: species or system NSG mice. Conditions: MCF7, Day 29; PO BID: PF-07104091 120 mpk, PF-07220060 60 mpk, PF-06873600 30 mpk, palbociclib 10 mpk; fulvestrant 10 mpk SC. The method, then:
as §2, with “HCC1428, MCF7” for “T47D, HCC1428”
The MCF7 model was established by implanting donor tumor fragments into recipient mice. To establish the MCF7 donor mice, tumor cells (5×10^6 cell/mouse with 50% Cultrex® Basement Membrane Matrix) were subcutaneously implanted in female NSG mice. Once reaching a range of 700 to 800 mm^3, donor tumors were subsequently transplanted into secondary recipient mice for a study expansion. […] PF-07104091 (lot 022), PF-07220060 (lot CPo126812-01-SY-5700-01), PF-06873600 (lot 022) and PD-0332991 (lot GR08498) were administered (PO) BID (7 hr apart) while fulvestrant (lot 20160224-2) at 10 mg/kg, SC twice in the first week, then weekly afterwards. All mice received treatment continuously until Day 29. TGI was assessed on Day 29 post first dose

Experiment [1] has as its system T47D breast cancer cell line. Nature of the experiment: Cell proliferation combination assay (Loewe Volume, CI), T47D. The class given is cell-based, Human. The note with it: T-47D cells; for Best CI: Best CI Level 70. As for the experimental part: The combination effects of PF-07104091 and PF-07220060 were evaluated in a cell proliferation assay with MCF7 and T47D BC cell lines.
Drug combinations were analyzed using the Dose Equivalence Principle, and the Loewe Volume score. When modeling synergy using the Dose Equivalence Principle, the Loewe Volume score for the combination compounds should be greater than the compound self-cross controls, and the Combination Index (C) score for the combination compounds should be less than compound self-cross controls. […] The isobolograms set to an anti-proliferation threshold at 70% confirmed a synergistic response.

The test system of experiment [2] is HCC1428 breast cancer model. Put plainly: In vivo efficacy, HR+/HER2− HCC1428 breast cancer model (Example 3). Conditions: HCC1428, Day 42; PO BID: PF-07104091 150 mpk, PF-07220060 60 mpk, palbociclib 10 mpk. Further details: species or system NSG mice. As for the experimental part:
as §2
as §3, with “The HCC1428” for “The T47D”, “passage 4” for “passage 3”, “the HCC1428” for “the T47D”, “Day 42.” for “Day 41.”, “Day 42” for “Day 41”

The next experiment concerns NCI-H2347. Put plainly: Combinatorial activity in LUAD cell line NCI-H2347. Format: cell-based. The note with it: Homo sapiens; NCI-H2347, KRAS L19F; single agent; read-out: (nM) s.a. As for the experimental part:
as §1

Another experiment relates to A549. Nature of the experiment: Combinatorial activity in LUAD cell line A549. The note with it: Homo sapiens; A549, WT; single agent; read-out: (nM) s.a. The class given is cell-based. As for the experimental part:
as §1

Two compounds from patent US20250041277A1, “METHODS AND DOSING REGIMENS COMPRISING A CDK2 INHIBITOR AND A CDK4 INHIBITOR FOR TREATING CANCER” (PFIZER INC., priority 2021, published 2025) can be followed below.

As for `CC(C)n1c(C(C)(C)O)nc2c(F)cc(-c3nc(N[C@@H]4CCOC[C@H]4O)ncc3Cl)cc21` [PF-07220060, 1,5-anhydro-3-({5-chloro-4-[4-fluoro-2-(2-hydroxypropan-2-yl)-1-(propan-2-yl)-1H-benzimidazol-6-yl]pyrimidin-2-yl}amino)-2,3-dideoxy-D-threo-pentitol], the IC50 in the experiment with HCC2935 came to 141 nM; in the experiment on CALU6 it was 155 nM; with NCI-H2347, 70 nM; in the experiment with A549, 814 nM. Also, the TGI % in the experiment with T47D breast cancer model came out at 73%; with MCF7 breast cancer model, 79%; in experiment [2] it was 89%. Also, the “Loewe Volume” value in experiment [1] worked out at 0.00. In experiment [1], the “Best CI” value was determined as 0.97.

Consider `COCc1cc(C(=O)Nc2cc([C@H]3CC[C@@H](OC(=O)NC(C)C)C3)[nH]n2)n(C)n1` [PF-07104091, (1R,3S)-3-[3-({[3-(methoxymethyl)-1-methyl-1H-pyrazol-5-yl]carbonyl}amino)-1H-pyrazol-5-yl]cyclopentyl propan-2-ylcarbamate], for which the IC50 is 280 nM in the experiment on HCC2935, 268 nM in the experiment with CALU6, 364 nM with NCI-H2347 and 574 nM in the experiment on A549. The TGI % was 82% in the experiment with T47D breast cancer model, 60% with MCF7 breast cancer model and 95% in experiment [2]. In addition, the “Loewe Volume” value in experiment [1] came out at 0.01. Besides, the “Best CI” value in experiment [1] is given as 0.95.
